Measured values: patent US20110098325A1, “PYRIDINE BENZAMIDES AND PYRAZINE BENZAMIDES USED AS PKD INHIBITORS” (CANCER RESEARCH TECHNOLOGY LIMITED, priority 2006, published 2011)

Target: T1, Murine PKD1 kinase domain (Mus musculus, UniProt Q62101)
T1 construct: hexahistidine (pFastBac HTb leader) (N); made in house; host or cells: Sf9 insect cells, baculovirus (Bac-to-Bac HT, pFastBac HTb)
T1 sequence (Q62101 with tags, fused parts or gaps R683W): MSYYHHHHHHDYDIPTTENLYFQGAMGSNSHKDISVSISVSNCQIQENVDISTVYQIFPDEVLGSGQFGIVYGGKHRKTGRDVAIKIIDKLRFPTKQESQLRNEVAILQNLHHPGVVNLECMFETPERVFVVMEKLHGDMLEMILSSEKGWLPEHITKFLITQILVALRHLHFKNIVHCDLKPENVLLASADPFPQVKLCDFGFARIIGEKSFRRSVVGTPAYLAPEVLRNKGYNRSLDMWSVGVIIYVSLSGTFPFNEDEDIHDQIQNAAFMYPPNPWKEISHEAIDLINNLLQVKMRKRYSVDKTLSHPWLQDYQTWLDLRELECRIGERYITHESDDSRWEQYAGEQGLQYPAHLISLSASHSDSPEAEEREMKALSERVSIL
Assay: PKD1 (Murine Kinase Domain) Enzyme Activity Assay (IMAP fluorescence polarisation)
Format: biochemical
Conditions: 10 μM ATP, 60 minutes, room temperature
From the text: The DNA sequence corresponding to murine PKD1 (see FIG. 1) was inserted into pFastBAc Htb (Invitrogen, USA) at BamH1 and EcoR1 sites using standard molecular biology techniques.
The PKD1 described above was expressed as a hexahistidine tagged protein construct using a commercially available baculoviral expression system that induces protein production in insect cell culture (Bac-to-Bac® HT Baculovirus Expression System, Invitrogen). Protein was typically expressed by inoculating 1 L of sf9 cells with a genetically modified baculovirus containing the gene for the kinase domain of PKD1. Sf9 cells were obtained from ICR Ltd.
Purification of PKD1 was achieved by standard chromatographic procedures. Capture from crude centrifuged lysed cell supernatant was achieved using metal affinity chromatography (GE Healthcare Life Sciences, HiTrap Chelating chromatography column), and fractions showing PKD1 (as assessed by gel electrophoresis and western blot) were further purified by a single polish purification step performed using a mono Q anion exchange chromatography system (GE Healthcare Life Sciences, HiTrap HP Q column). […] This protocol describes the method for screening compounds as inhibitors of Protein Kinase D activity in a 384 well microplate format fluorescence polarisation IMAP assay performed using the Biomek FX.
Kinase Enzyme: Murine PKD1 kinase domain at ˜100 μg/mL, was purified from baculovirus (as described above), obtained from aliquots stored at −70° C. PKD was prepared with a final concentration of 0.1 μg/mL by diluting 1:300 in Reaction Buffer (30 μL per 9 mL-5 mL per plate with an additional 4 mL dead volume) and vortexing prior to use. It was necessary to check this concentration regularly in case of enzyme degradation.
(also known as MAPKAP K2 substrate) was obtained from Molecular Devices (Product code R7127). It was used at 300 nM by diluting 20 μM stock 1:66 in Kinase/Reaction Buffer (135 μL per 9 mL; 75 μL per 5 mL Reaction Buffer for blank wells requiring <1 mL per place with an additional 4 mL dead volume).
A 1 mM ATP stock in Reaction Buffer was prepared from a 10 mM stock in 20 mM NaOH and stored as aliquots at −70° C. It was used at 40 μM by diluting 1 mM stock 1:25 in Reaction Buffer (240 μL per 6 mL-2 mL per plate with an additional 4 mL dead volume) and vortexing prior to use.
IMAP Reagents: IMAP Binding Reagent (product code R7207) and Binding Buffer (product code R7208) were obtained from Molecular Devices and stored at +4° C. The beads were gently re-suspended before diluting by 1:400 in buffer (Binding Buffer is supplied as a 5× stock and so was diluted with water prior to use) and then vortexing before addition to wells. 16 mL water with 4 mL Binding Buffer and 50 μL Binding Reagent were used per plate (17 mL per plate with an additional 3 mL dead volume).
13 μL Substrate in Reaction Buffer was added to ‘blank’ wells to give 200 nM reaction concentration. […] 2 μL 10% DMSO/water was added to ‘blank’ and ‘control’ wells. 5 μL ATP in Reaction Buffer was added to all wells to give 10 μM reaction concentration. The reaction mixture was then incubated at room temperature for 60 minutes. The incubation period was followed by the addition of 40 μL IMAP Binding Reagent in Binding Buffer to all wells. The reaction was then further incubated at room temperature for […].
Percentage inhibition was calculated based on activity of the test sample minus the average values in the blank wells relative to the average values measured in control wells minus the average values in the blank wells.
IC50 values were calculated from 10 point dose sigmoid ‘dose-response’ curves using Xlfit software (IDBS inc, USA). Data were fitted to a 4 parameter logistic model/sigmoidal dose response:
where: A=fit minimum (locked to 0); B=fit maximum (locked to 100); C=fit midpoint (pre-fit to 1); D=slope at linear portion of curve, hillslope (pre-fit to 0.1)

| Compound | IC50 [nM] |
| --- | --- |
| CN(C)CCNC(=O)c1cccc(-c2cnc(N)c(-c3ccc(C(F)(F)F)cc3)c2)c1 [Y-069, 3-[6-Amino-5-(4-trifluoromethyl-phenyl)-pyridin-3-yl]-N-(2-dimethylamino-ethyl)-benzamide] | < 1000 |
| CN(C)CCNC(=O)c1cccc(-c2cnc(N)c(-c3cccc(Oc4ccccc4)c3)c2)c1 [Y-049, 3-[6-Amino-5-(3-phenoxy-phenyl)-pyridin-3-yl]-N-(2-dimethylamino-ethyl)-benzamide] | < 1000 |
| COc1cc(-c2cc(-c3cccc(C(=O)NCCN(C)C)c3)cnc2N)ncn1 [Y-093, 3-[6-Amino-5-(6-methoxy-pyrimidin-4-yl)-pyridin-3-yl]-N-(2-dimethylamino-ethyl)-benzamide] | < 1000 |
| COc1ccccc1-c1cc(-c2cccc(C(N)=O)c2)cnc1N [Y-002, 3-[6-Amino-5-(2-methoxy-phenyl)-pyridin-3-yl] benzamide] | 1000 to 10000 |
| CN(C)CCNC(=O)c1cccc(-c2cnc(N)c(-c3ccc(F)c(Cl)c3)c2)c1 [Y-039, 3-[6-Amino-5-(3-chloro-4-fluoro-phenyl)-pyridin-3-yl]-N-(2-dimethylamino-ethyl)-benzamide] | < 1000 |
| COc1ccccc1-c1cc(-c2cccc(C(=O)N3CCN(C)CC3)c2)cnc1N [Y-003, {3-[6-Amino-5-(2-methoxy-phenyl)-pyridin-3-yl]-phenyl}-(4-methyl-piperazin-1-yl)-methanone] | 1000 to 10000 |
| NC(=O)c1cccc(-c2cnc(N)c(-c3cccc4ncccc34)c2)c1 [Y-021, 3-(6-Amino-5-quinolin-5-yl-pyridin-3-yl)-benzamide] | 1000 to 10000 |
| CN(C)CCNC(=O)c1cccc(-c2cnc(N)c(-c3ccc4cc(O)ccc4c3)c2)c1 [Y-082, 3-[6-Amino-5-(6-hydroxy-naphthalen-2-yl)-pyridin-3-yl]-N-(2-dimethylamino-ethyl)-benzamide] | < 1000 |
| COc1cc(-c2cc(-c3cccc(C(=O)N4CCN(C)CC4)c3)cnc2N)ccc1O [Y-004, {3-[6-Amino-5-(4-hydroxy-3-methoxy-phenyl)-pyridin-3-yl]-phenyl}-(4-methyl-piperazin-1-yl)-methanone] | 1000 to 10000 |
| CNc1ncc(-c2cccc(C(=O)NCCN(C)C)c2)cc1-c1cccc(OC)c1 [Y-074, N-(2-Dimethylamino-ethyl)-3-[5-(3-methoxy-phenyl)-6-methylamino-pyridin-3-yl]-benzamide] | < 1000 |
| CCOc1cccc(-c2cc(-c3cccc(C(=O)NCCN(C)C)c3)cnc2N)c1 [Y-073, 3-[6-Amino-5-(3-ethoxy-phenyl)-pyridin-3-yl]-N-(2-dimethylamino-ethyl)-benzamide] | 1000 to 10000 |
| NC(=O)c1cccc(-c2cnc(N)c(-c3ccoc3)c2)c1 [Y-016, 3-(6-Amino-5-furan-3-yl-pyridin-3-yl)-benzamide] | < 1000 |
| CN(C)CCNC(=O)c1cccc(-c2cnc(N)c(-c3ccc(OC(F)(F)F)cc3)c2)c1 [Y-064, 3-[6-Amino-5-(4-trifluoromethoxy-phenyl)-pyridin-3-yl]-N-(2-dimethylamino-ethyl)-benzamide] | < 1000 |
| CN(C)CCNC(=O)c1cccc(-c2cnc(N)c(-c3ccc(-c4ccccc4)c(F)c3)c2)c1 [Y-031, 3-[6-Amino-5-(2-fluoro-biphenyl-4-yl)-pyridin-3-yl]-N-(2-dimethylamino-ethyl)-benzamide] | < 1000 |
| CCSc1ccc(-c2cc(-c3cccc(C(=O)NCCN(C)C)c3)cnc2N)cc1 [Y-053, 3-[6-Amino-5-(4-ethylsulfanyl-phenyl)-pyridin-3-yl]-N-(2-dimethylamino-ethyl)-benzamide] | < 1000 |
| CN(C)CCNC(=O)c1cccc(-c2cnc(N)c(-c3ccoc3)c2)c1 [Y-017, 3-(6-Amino-5-furan-3-yl-pyridin-3-yl)-N-(2-dimethylamino-ethyl)-benzamide] | < 1000 |
| CN(C)CCNC(=O)c1cccc(-c2cnc(N)c(-c3ccc(F)c(C(F)(F)F)c3)c2)c1 [Y-057, 3-[6-Amino-5-(4-fluoro-3-trifluoromethyl-phenyl)-pyridin-3-yl]-N-(2-dimethylamino-ethyl)-benzamide] | < 1000 |
| COc1cccc(-c2cc(-c3cccc(C(=O)NCCN(C)C)c3)cnc2N)c1 [Y-048, 3-[6-Amino-5-(3-methoxy-phenyl)-pyridin-3-yl]-N-(2-dimethylamino-ethyl)-benzamide] | < 1000 |
| COc1ccccc1-c1nc(-c2cccc(C(=O)NCCN(C)C)c2)cnc1N [X-015, 3-[5-Amino-6-(2-methoxy-phenyl)-pyrazin-2-yl]-N-(2-dimethylamino-ethyl)-benzamide] | 1000 to 10000 |
| CSc1nccc(-c2cc(-c3cccc(C(=O)NCCN(C)C)c3)cnc2N)n1 [Y-086, 3-[6-Amino-5-(2-methylsulfanyl-pyrimidin-4-yl)-pyridin-3-yl]-N-(2-dimethylamino-ethyl)-benzamide] | < 1000 |
| COc1cc(F)ccc1-c1cc(-c2cccc(C(=O)NCCN(C)C)c2)cnc1N [Y-054, 3-[6-Amino-5-(4-fluoro-2-methoxy-phenyl)-pyridin-3-yl]-N-(2-dimethylamino-ethyl)-benzamide] | 1000 to 10000 |
| CN1CCN(C(=O)c2cccc(-c3cnc(N)c(-c4cccc5c4oc4ccccc45)n3)c2)CC1 [X-008, [3-(5-Amino-6-dibenzofuran-4-yl-pyrazin-2-yl)-phenyl]-(4-methyl-piperazin-1-yl)-methanone] | < 1000 |
| COc1cncc(-c2cc(-c3cccc(C(=O)NCCN(C)C)c3)cnc2N)c1 [Y-089, 3-(2-Amino-5′-methoxy-[3,3′]bipyridinyl-5-yl)-N-(2-dimethylamino-ethyl)-benzamide] | < 1000 |
| CN(C)CCNC(=O)c1cccc(-c2cnc(N)c(-c3ccncc3)c2)c1 [Y-084, 3-(2-Amino-[3,4′]bipyridinyl-5-yl)-N-(2-dimethylamino-ethyl)-benzamide] | < 1000 |
| CCN(CC)CCNC(=O)c1cccc(-c2cncc(-c3ccc(O)c(OC)c3)n2)c1 [X-022, N-(2-Diethylamino-ethyl)-3-[6-(4-hydroxy-3-methoxy-phenyl)-pyrazin-2-yl]-benzamide] | < 1000 |
| CC(C)Cc1ccc(-c2cc(-c3cccc(C(=O)NCCN(C)C)c3)cnc2N)cc1 [Y-062, 3-[6-Amino-5-(4-isobutyl-phenyl)-pyridin-3-yl]-N-(2-dimethylamino-ethyl)-benzamide] | < 1000 |
| COc1ccc(-c2cc(-c3cccc(C(=O)NCCN(C)C)c3)cnc2N)cn1 [Y-008, 3-(2-Amino-6′-methoxy-[3,3′]bipyridinyl-5-yl)-N-(2-dimethylamino-ethyl)-benzamide] | 1000 to 10000 |
| COc1cc(OC)cc(-c2cc(-c3cccc(C(=O)NCCN(C)C)c3)cnc2N)c1 [Y-081, 3-[6-Amino-5-(3,5-dimethoxy-phenyl)-pyridin-3-yl]-N-(2-dimethylamino-ethyl)-benzamide] | < 1000 |
| COCc1cccc(-c2cc(-c3cccc(C(=O)NCCN(C)C)c3)cnc2N)c1 [Y-047, 3-[6-Amino-5-(3-methoxymethyl-phenyl)-pyridin-3-yl]-N-(2-dimethylamino-ethyl)-benzamide] | 1000 to 10000 |
